Measurements published in ChEMBL document CHEMBL5236572, “Bioactive Aurones, Indanones, and Other Hemiindigoid Scaffolds: Medicinal Chemistry and Photopharmacology Perspectives” (J Med Chem, 2022).
Each block holds one molecule with its values, some of them ahead of it.

What was measured:
[1] = molecular target: Serine/threonine-protein kinase pim-1 (Homo sapiens, UniProt P11309); experiment: Inhibition of PIM1 (unknown origin) using poly-Glu-Tyr (4:1) as substrate in presence of [gamma-33P-ATP] incubated for 2 hrs by radiometric kinase assay
Tubulin = Tubulin (Sus scrofa, UniProt P02554+P02550); experiment: Inhibition of porcine brain tubulin polymerization preincubated for 1 mins followed by GTP addition and measured for 60 mins at 1 min interval by fluorescence assay
Bel-7402 = experiment: Antiproliferative activity against human Bel-7402 cells assessed as reduction in cell viability incubated for 48 hrs by MTT assay; format: functional, cell-based; conditions: Bel-7402, 48 h
PC-3 = experiment: Antiproliferative activity against human PC-3 cells assessed as reduction in cell viability incubated for 48 hrs by MTT assay; format: functional, cell-based; conditions: PC-3, 48 h
HeLa = experiment: Antiproliferative activity against human HeLa cells assessed as reduction in cell viability incubated for 48 hrs by MTT assay; format: functional, cell-based
A549 [2] = experiment: Antiproliferative activity against human A549 cells assessed as reduction in cell viability incubated for 48 hrs by MTT assay; format: functional, cell-based; conditions: A549, 48 h
K562 = experiment: Antiproliferative activity against human K562 cells assessed as reduction in cell viability incubated for 48 hrs by MTT assay; format: functional, cell-based; conditions: K562, 48 h
[3] = molecular target: T1, Amine oxidase [flavin-containing] B (Homo sapiens, UniProt P27338); experiment: Inhibition of recombinant human MAO-B assessed as inhibition of 4-hydroxyquinoline formation using kynuramine as substrate incubated for 20 mins by fluorescence assay
T1 sequence (P27338 whole entry): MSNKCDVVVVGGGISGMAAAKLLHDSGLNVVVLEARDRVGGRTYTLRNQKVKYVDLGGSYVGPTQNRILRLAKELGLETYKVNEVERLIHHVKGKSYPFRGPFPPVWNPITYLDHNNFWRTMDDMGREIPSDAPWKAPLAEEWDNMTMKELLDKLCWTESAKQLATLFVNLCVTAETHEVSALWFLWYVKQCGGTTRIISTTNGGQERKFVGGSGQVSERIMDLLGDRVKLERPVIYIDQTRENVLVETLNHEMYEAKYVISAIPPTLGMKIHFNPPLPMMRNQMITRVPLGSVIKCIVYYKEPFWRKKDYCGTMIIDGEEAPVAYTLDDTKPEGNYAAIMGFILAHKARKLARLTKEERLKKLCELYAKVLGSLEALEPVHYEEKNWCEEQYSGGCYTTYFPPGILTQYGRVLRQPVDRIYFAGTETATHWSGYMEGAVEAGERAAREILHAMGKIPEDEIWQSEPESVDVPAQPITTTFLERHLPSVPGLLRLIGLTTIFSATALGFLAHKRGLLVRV

[4] = molecular target: T2, Amine oxidase [flavin-containing] A (Homo sapiens, UniProt P21397); experiment: Inhibition of recombinant human MAO-A assessed as inhibition of 4-hydroxyquinoline formation using kynuramine as substrate incubated for 20 mins by fluorescence assay
T2 sequence (P21397 whole entry): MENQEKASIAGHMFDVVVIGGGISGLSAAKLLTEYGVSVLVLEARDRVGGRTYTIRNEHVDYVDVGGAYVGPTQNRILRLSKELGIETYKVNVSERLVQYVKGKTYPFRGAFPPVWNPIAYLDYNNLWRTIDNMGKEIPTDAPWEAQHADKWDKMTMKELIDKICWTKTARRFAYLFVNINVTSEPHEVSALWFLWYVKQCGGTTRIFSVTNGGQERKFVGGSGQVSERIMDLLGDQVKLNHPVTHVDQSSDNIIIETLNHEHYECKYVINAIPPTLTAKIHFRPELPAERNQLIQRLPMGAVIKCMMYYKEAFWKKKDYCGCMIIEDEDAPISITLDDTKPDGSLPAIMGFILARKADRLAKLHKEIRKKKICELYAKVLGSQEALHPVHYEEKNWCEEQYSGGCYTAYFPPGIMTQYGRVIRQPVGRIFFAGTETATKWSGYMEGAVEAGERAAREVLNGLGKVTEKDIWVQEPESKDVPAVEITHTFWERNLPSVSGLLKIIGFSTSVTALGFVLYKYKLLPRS

MDA-MB-231 = experiment: Antiproliferative activity against human MDA-MB-231 cells assessed as reduction in cell viability incubated for 48 hrs by MTT assay; format: functional, cell-based; conditions: MDA-MB-231, 48 h
[5] = Inhibition of Polyporus arcularius tyrosinase using L-DOPA as substrate incubated for 10 mins by spectrophotometric analysis
Tyrosinase [6] = molecular target: T3, Tyrosinase (Agaricus bisporus, UniProt O42713); experiment: Inhibition of Agaricus bisporus tyrosinase using L-DOPA as substrate incubated for 10 mins by spectrophotometric analysis
T3 sequence (O42713 whole entry): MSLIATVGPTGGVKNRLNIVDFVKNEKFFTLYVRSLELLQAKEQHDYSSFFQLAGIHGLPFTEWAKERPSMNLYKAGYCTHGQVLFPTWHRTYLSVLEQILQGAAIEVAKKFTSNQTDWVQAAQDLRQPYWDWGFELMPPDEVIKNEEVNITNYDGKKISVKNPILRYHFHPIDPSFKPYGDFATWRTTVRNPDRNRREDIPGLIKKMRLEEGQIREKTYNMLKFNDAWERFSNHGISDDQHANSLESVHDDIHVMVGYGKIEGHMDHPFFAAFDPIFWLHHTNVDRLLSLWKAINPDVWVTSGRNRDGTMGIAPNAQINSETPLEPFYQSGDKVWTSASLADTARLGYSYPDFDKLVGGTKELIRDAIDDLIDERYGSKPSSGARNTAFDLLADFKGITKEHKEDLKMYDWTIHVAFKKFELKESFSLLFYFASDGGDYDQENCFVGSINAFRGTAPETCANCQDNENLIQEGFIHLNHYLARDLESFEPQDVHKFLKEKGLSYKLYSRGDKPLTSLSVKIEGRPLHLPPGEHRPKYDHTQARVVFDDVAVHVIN

Homo sapiens = species: Homo sapiens; experiment: Selectivity index, ratio of IC50 for inhibition of recombinant human MAO-A to IC50 for inhibition of recombinant human MAO-B
[7] = molecular target: Amyloid-beta precursor protein (Homo sapiens, UniProt P05067); experiment: Binding affinity to human brain homogenate amyloid beta by radioligand competition binding assay; format: tissue-based
[8] = molecular target: Glycogen synthase kinase-3 beta (Homo sapiens, UniProt P49841); experiment: Inhibition of recombinant GSK-3beta (unknown origin) using GS peptide as substrate in presence of ATP incubated for 1 hrs by ADP-Glo kinase assay
MCF7 = experiment: Antiproliferative activity against human MCF7 cells assessed as reduction in cell viability incubated for 48 hrs by sulforhodamine assay; format: functional, cell-based; conditions: MCF7, 48 h
A549 [9] = experiment: Antiproliferative activity against human A549 cells assessed as reduction in cell viability incubated for 48 hrs by sulforhodamine assay; format: functional, cell-based; conditions: A549, 48 h
T47D = experiment: Antiproliferative activity against human T47D cells assessed as reduction in cell viability incubated for 48 hrs by sulforhodamine assay; format: functional, cell-based
THP-1 = experiment: Antiproliferative activity against human THP-1 cells assessed as reduction in cell viability incubated for 48 hrs by sulforhodamine assay; format: functional, cell-based; conditions: THP-1, 48 h
HCT-116 = experiment: Antiproliferative activity against human HCT-116 cells assessed as reduction in cell viability incubated for 48 hrs by sulforhodamine assay; format: functional, cell-based; conditions: HCT-116, 48 h
Tyrosinase [10] = molecular target: T3, Tyrosinase; experiment: Inhibition of mushroom tyrosinase using L-DOPA as substrate incubated for 30 mins by spectrophotometric analysis
MES-SA/Dx5 = experiment: Antiproliferative activity against doxorubicin resistant human MES-SA/Dx5 cells assessed as reduction in cell viability incubated for 72 hrs by PrestoBlue cell viability assay; format: functional, cell-based; conditions: MES-SA/Dx5, 72 h
MES-SA = experiment: Antiproliferative activity against human MES-SA cells assessed as reduction in cell viability incubated for 72 hrs by PrestoBlue cell viability assay; format: functional, cell-based
[11] = Selectivity ratio of IC50 for antiproliferative activity against human MES-SA cells to IC50 for antiproliferative activity against doxorubicin resistant human MES-SA/Dx5 cells; format: functional

Chain of Amyloid-beta precursor protein (P05067 whole entry): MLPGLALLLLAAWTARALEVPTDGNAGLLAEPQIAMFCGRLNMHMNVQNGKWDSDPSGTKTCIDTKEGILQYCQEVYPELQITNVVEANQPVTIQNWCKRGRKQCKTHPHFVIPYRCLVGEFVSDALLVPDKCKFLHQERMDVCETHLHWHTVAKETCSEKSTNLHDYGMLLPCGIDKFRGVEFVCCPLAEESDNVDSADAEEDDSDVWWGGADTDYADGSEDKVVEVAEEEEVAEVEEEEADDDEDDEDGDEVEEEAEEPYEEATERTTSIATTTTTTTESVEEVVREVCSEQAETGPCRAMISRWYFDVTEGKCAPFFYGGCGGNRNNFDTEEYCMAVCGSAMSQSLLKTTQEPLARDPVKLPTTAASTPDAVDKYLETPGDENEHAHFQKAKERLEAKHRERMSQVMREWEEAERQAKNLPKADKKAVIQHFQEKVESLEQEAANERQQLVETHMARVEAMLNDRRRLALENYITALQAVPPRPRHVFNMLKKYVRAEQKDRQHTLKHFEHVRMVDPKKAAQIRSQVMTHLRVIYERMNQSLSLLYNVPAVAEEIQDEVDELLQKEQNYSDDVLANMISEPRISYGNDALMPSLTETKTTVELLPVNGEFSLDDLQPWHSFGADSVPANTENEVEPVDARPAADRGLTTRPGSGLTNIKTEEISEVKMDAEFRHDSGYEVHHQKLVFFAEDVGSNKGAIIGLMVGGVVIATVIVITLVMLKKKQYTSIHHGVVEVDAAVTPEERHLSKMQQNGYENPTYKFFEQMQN
Chain of Serine/threonine-protein kinase pim-1 (P11309 whole entry): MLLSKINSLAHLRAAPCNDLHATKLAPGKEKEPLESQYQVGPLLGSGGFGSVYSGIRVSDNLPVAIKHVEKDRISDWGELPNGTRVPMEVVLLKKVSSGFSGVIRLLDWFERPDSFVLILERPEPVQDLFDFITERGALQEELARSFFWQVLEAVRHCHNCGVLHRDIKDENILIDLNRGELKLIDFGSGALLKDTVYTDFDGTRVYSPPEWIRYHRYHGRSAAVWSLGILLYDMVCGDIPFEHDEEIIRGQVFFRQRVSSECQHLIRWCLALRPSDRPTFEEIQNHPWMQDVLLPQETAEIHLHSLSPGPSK
Chain of Glycogen synthase kinase-3 beta (P49841 whole entry): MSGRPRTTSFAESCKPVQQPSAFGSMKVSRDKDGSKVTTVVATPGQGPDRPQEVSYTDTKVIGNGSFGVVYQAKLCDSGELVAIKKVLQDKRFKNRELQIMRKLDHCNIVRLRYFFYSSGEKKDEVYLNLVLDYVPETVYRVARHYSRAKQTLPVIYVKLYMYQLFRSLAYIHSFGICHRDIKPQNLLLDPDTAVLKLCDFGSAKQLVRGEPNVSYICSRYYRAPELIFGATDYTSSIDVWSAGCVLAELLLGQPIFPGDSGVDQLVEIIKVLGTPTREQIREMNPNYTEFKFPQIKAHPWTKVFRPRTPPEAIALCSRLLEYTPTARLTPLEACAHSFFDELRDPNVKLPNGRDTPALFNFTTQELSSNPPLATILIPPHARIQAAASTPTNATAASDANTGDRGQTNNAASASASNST

Compound: COc1cc2c(c(OC)c1OC)C/C(=C\c1cccc3[nH]ccc13)C2=O
IC50 (Tubulin): 1990 nM
IC50 (Bel-7402): 30 nM
IC50 (PC-3): 30 nM
IC50 (HeLa): 30 nM
IC50 (A549 [2]): 30 nM
IC50 (K562): 30 nM

Compound: COc1ccc2c(c1)C/C(=C\c1ccc(Br)o1)C2=O
IC50 [3]: 40 nM
IC50 [4]: 180 nM

Compound: O=C1/C(=C(\O)c2cccc(Br)c2)Sc2ccccc21
IC50 [3]: 350 nM
IC50 [4]: 63000 nM

Compound: COc1ccc(/C=C2\Cc3c(cc(OC)c(OC)c3OC)C2=O)cc1O
IC50 (Tubulin): 7560 nM
IC50 (Bel-7402): 170 nM
IC50 (MDA-MB-231): 170 nM
IC50 (PC-3): 170 nM
IC50 (HeLa): 170 nM
IC50 (A549 [2]): 170 nM

Compound: CN(C)c1ccc(/C=C2\Cc3cc(I)ccc3C2=O)cc1
Ki [7]: 100 nM

Compound: CN(C)c1ccc(/C=C2\Nc3ccc(I)cc3C2=O)cc1
Ki [7]: 240 nM

Compound: COc1cc(C2/C(=C/c3ccc([N+](=O)[O-])cc3)C(=O)c3cc(OC)c(OC)c(OC)c32)cc(OC)c1OC (stereo unspecified)
IC50 (MCF7): 4000 nM
IC50 (Tubulin): 1500 nM
IC50 (A549 [9]): 4000 nM
IC50 (T47D): 4000 nM
IC50 (THP-1): 4000 nM
IC50 (HCT-116): 4000 nM

Compound: COc1cc(OC)c2c(c1)O/C(=C\c1ccc(N(C)C)cc1)C2=O
IC50 (MES-SA/Dx5): 15000 nM
IC50 (MES-SA): 60000 nM
Ratio IC50 [11]: 4

Continued, values first:

IC50 [1]: 8800 nM
Compound: COc1cc(O)c2c(c1)O/C(=C\c1c[nH]c3nc(Cl)ccc13)C2=O

IC50 [1]: 18000 nM
Compound: O=C1/C(=C/c2cc(-c3ccncc3)[nH]n2)Oc2cc(O)cc(O)c21

IC50 [5]: 34000 nM
IC50 (Tyrosinase [6]): 4000 nM
Compound: O=C1/C(=C/c2ccc(O)cc2O)Oc2cccc(O)c21

Ratio IC50 (Homo sapiens): > 38000
IC50 [3]: 2.6 nM
IC50 [4]: > 100000 nM
Compound: COc1ccc2c(c1)O/C(=C\n1ccc3ccccc31)C2=O

IC50 [8]: 450 nM
Compound: O=C1/C(=C/c2c[nH]c3ncccc23)Oc2cc(OCc3cccc(F)c3)ccc21

IC50 (Tyrosinase [10]): 34 nM
Compound: O=C1/C(=C/c2ccc(O)cc2O)Cc2ccccc21
